Reference: patent publication US20200297820A1, “STIMULATION OF HUMAN MEIBOMIAN GLAND FUNCTION” (The Schepens Eye Research Institute, Inc., priority 2013, published 2020)

Columns and labels:
Type in all cases: cell-based
[1] = tested on: human meibomian gland epithelial cells; test: LysoTracker Red staining of lysosomes; conditions: 10 μg/ml, 5 days
Method: This section outlines the materials and methods that produced the experimental data. Immortalized human meibomian gland epithelial cells were cultured in the presence or absence of 10% fetal bovine serum. […]
(§1) Cell numbers were enumerated with a hemocytometer. Cellular lipid and lysosome accumulation were examined by staining cells with: Filipin III (a fluorometric probe for identifying unesterified cholesterol), LipidTOX green neutral lipid stain, and LysoTracker® Red DND-99 (a fluorescent technique designed for labeling acidic organelles such as lysosomes). Lysosomal lamellar bodies were identified by transmission electron microscopy. In brief, after culture and treatment on 24 mm polycarbonate membrane transwell inserts (0.4 μm pore size), cells were fixed in a solution of 2% formaldehyde+2.5% glutaraldehyde, in 0.08 M sodium cacodylate buffer, pH 7.4, post-fixed with 2% osmium tetroxide in 0.1 M sodium cacodylate buffer, and stained en bloc with 2% aqueousuranyl acetate. Samples were then dehydrated in graded ethyl alcohol solutions and embedded by using the tEPON-812 epoxy resin kit. Cross sections (1 μM) were stained with 1% toluidine blue in 1% sodium tetraborate solution. […] Lipids were then evaluated with high-performance thin-layer chromatography. […] Image data were quantified with ImageJ (http://rsbweb.nib.gov/ij/index.html). […]

[2] = tested on: human meibomian gland epithelial cells; test: Filipin III staining of free (unesterified) cholesterol; conditions: 10 μg/ml, 5 days
Method: This section outlines the materials and methods that produced the experimental data. Immortalized human meibomian gland epithelial cells were cultured in the presence or absence of 10% fetal bovine serum. After reaching 80-90% confluence (˜5×10^6/well), cells were exposed to the vehicle (0.02% ethanol) or azithromycin (10 μg/ml) for 5 days and then processed for histological and biochemical procedures.
as §1, with “acetate.” for “acetate. Samples were then dehydrated in graded ethyl alcohol solutions and embedded by using the tEPON-812 epoxy resin kit. Cross sections (1 μM) were stained with 1% toluidine blue in 1% sodium tetraborate solution.”

[3] = tested on: immortalized human meibomian gland epithelial cells; test: Cellular morphology (terminal maturation, holocrine-like secretion); conditions: azithromycin 10 μg/ml
Method: As an example of these experiments, immortalized human meibomian gland epithelial cells were cultured in the presence or absence of 10% fetal bovine serum. Cells were treated with an ethanol vehicle or azithromycin (10 μg/ml; Santa Cruz Biotechnology) for varying time periods. Cellular morphological appearance was recorded, cells were counted with a hemocytometer, and lipid accumulation was assessed by staining the cells with LipidTOX green neutral lipid stain (Invitrogen, Grand Island, N.Y.), according to reported methods. Staining fluorescent intensities were quantified by using ImageJ (http://rsbweb.nih.gov/ij/index.html). Statistical analyses were performed with Student's t-test (two-tailed, unpaired). Immortalized human meibomian gland epithelial cells ([…]; passages 20-22) were cultured in the presence or absence of 10% fetal bovine serum. Cells were treated with the ethanol vehicle or azithromycin (10 μg/mL) for varying periods. Cellular morphological appearance was recorded, cells were counted with a hemocytometer, and lipid accumulation was assessed by staining cells with LipidTOX green neutral lipid stain (Invitrogen Corp). Staining fluorescent intensities were quantified using ImageJ software (http://rsbweb.nih.gov/ij/index.html). Statistical analyses were performed with t test (2-tailed, unpaired).

LNCaP cells = test: Immunoblot of JAK2/STAT5 pathway in positive control cells
Method: The disclosure turns now to sodium dodecyl sulfate-polyacrylamide gel, electrophoresis, and immunoblots. Cells were directly lysed in Laemmli buffer supplemented with 1% protease inhibitor cocktail (Sigma-Aldrich) and 5% β-mercaptoethanol (Sigma-Aldrich). Lysates were heated at 95° C. for 10 minutes, separated by sodium dodecyl sulfate-polyacrylamide gel electrophoresis on 10% Tris-glycine precast gels, and transferred to polyvinylidene difluoride membranes. Rabbit or mouse antibodies used were specific for phosphorylated Akt (p-Akt), pan-Akt, p-FoxO1, FoxO1, p-JAK2, JAK2, and β-actin; for p-ERK, ERK-2, STAT5, and the precursor form of SREBP-1; and for p-STAT5. Membranes were blocked with 5% bovine serum albumin in Tris-buffered saline containing 0.01% polysorbate 20. All primary antibodies were diluted to 1:1000 in blocking buffer except for p-Akt (1:4000), p-ERK (1:2000), ERK-2 (1:4000), SREBP-1 (1:200), and β-actin (1:10 000). Horseradish peroxidase-conjugated secondary antibodies were goat anti-rabbit IgG and Fc-specific goat anti-mouse IgG diluted to 1:5000. […]
FIGS. 9a, 9b, and 9c illustrate the effects of insulin-like growth factor 1 (IGF-1) and growth hormone (GH) on signaling pathways in human meibomian gland epithelial cells. […] Cell lysates were evaluated on immunoblotting. […]

Compound	accumulation of lysosomes (LysoTracker) [1]	accumulation of free cholesterol (Filipin) [2]	terminal maturation and holocrine-like secretion [3]	activation of JAK2/STAT5 pathway (LNCaP cells)
CC[C@H]1OC(=O)[C@H](C)[C@@H](O[C@H]2C[C@@](C)(OC)[C@@H](O)[C@H](C)O2)[C@H](C)[C@@H](O[C@@H]2O[C@H](C)C[C@H](N(C)C)[C@H]2O)[C@](C)(O)C[C@@H](C)CN(C)[C@H](C)[C@@H](O)[C@]1(C)O [Azithromycin]	significantly stimulates the accumulation	significantly stimulates the accumulation	promote terminal maturation	–
GH: human growth hormone	–	–	–	activated the JAK2/STAT5 pathway
